Values joined by “and” are separate entries in the source; they are usually repeats but may differ in a detail not shown here. Equal values may be shown once. Read-outs that look alike come from different tables or passages of the source.
How the values were obtained:
[1] = test system: influenza virus A/PR/8/34 (H1N1); format: cell-based; conditions: liposomes containing the peptide; egg PC concentration of 1 mM (peptide concentration: 0.15 mM); vs liposome without peptide
[2] = format: binding; conditions: 6′GM3 monolayer, QCM
[3] = format: binding; conditions: LacCer monolayer, QCM
[4] = format: binding; conditions: GM3 monolayer, QCM
[5] = format: binding; conditions: GalCer monolayer, QCM
[6] = format: binding; conditions: QCM; data not shown

Substance	percent inhibition of infection [1]	Kd [2]	Δmmax (maximum binding amount) [2]	Kd [3]	Δmmax (maximum binding amount) [3]	Kd [4]	Δmmax (maximum binding amount) [4]	Kd [5]	Δmmax (maximum binding amount) [5]	binding to glycosphingolipids [6]
ARLSPTMVHPRGAQP [A1 peptide, reference compound]	76%									
GWWYKGRARPVSAVA [c01-peptide, H-GWWYKGRARPVSAVA-NH2]	83%	4 ± 1.1 µM	93 ± 4.6 ng cm^−2	4.8 ± 1.6 µM	74 ± 5.2 ng cm^−2	1.8 µM	46 ng cm^−2 and 46 ± 2.4 ng cm^−2	13 ± 3.3 µM	64 ± 4.5 ng cm^−2	
H-AETVESCLAKPHTEN-NH2 [control peptide]										bound to none of the glycosphingolipids
RAVWRHSVATPSHSV [c03-peptide, H-RAVWRHSVATPSHSV-NH2]	94%	7 ± 2.2 µM	56 ± 3.1 ng cm^−2	5.9 ± 1.2 µM	37 ± 1.8 ng cm^−2	0.34 µM	11 ng cm^−2 and 11 ± 0.1 ng cm^−2		<3 ng cm^−2	

From US20090098195A1 (priority 2004, published 2009)
